According to patent US8197863B2, “Hop acids as a replacement for antibiotics in animal feed” (John I. Haas, Inc., priority 2002, dated 2012):

Test system: total bacteria (bacterial purine)
Test: In vitro microbe measurements: bacterial purine (total bacteria)
Type: cell-based, cattle
Settings: alfalfa; monensin 6 ppm
Source text: Proprionate is largely responsible for animal growth. […] There appears to be no effect on alfalfa protozoa and alfalfa bacterial purine by the beta acids. Again, reduction in protozoa and bacteria levels means more food and energy for animal growth.

## CC[C@@]1([C@@H]2O[C@@H]([C@H]3O[C@@](O)(CO)[C@H](C)C[C@@H]3C)C[C@@H]2C)CC[C@H]([C@]2(C)CC[C@]3(C[C@H](O)[C@@H](C)[C@@H]([C@@H](C)[C@@H](OC)[C@H](C)C(=O)O)O3)O2)O1 [monensin]
  elimination of protozoa and bacterial purines: most effectively eliminate
